ChEMBL document CHEMBL1201862, “PubChem BioAssay data set” (2004)
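Test compounds were applied to cells in 96-well plates for 48 hours at 5 doses. GI50 = concentration required for 50% inhibition of growth.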 Active and inactive are the calls of the source. No stated cut-off is given here; in the data, active = GI50 up to about 1.1 µM and inactive = higher.

Key:
Test in all cases: inhibition of tumour cell growth, NCI panel, 48 h
UACC-62 = test system: UACC-62
HCT-15 = test system: HCT-15
A549 = test system: A549
HOP-92 = test system: HOP-92
Hs-578T = test system: Hs-578T
MDA-N = test system: MDA-N
NCI-H23 = test system: NCI-H23
BT-549 = test system: BT-549
LOX IMVI = test system: LOX IMVI
SK-MEL-28 = test system: SK-MEL-28
HOP-62 = test system: HOP-62
RXF 393 = test system: RXF 393
T47D = test system: T47D
SNB-19 = test system: SNB-19
U-251 = test system: U-251
786-0 = test system: 786-0
HCT-116 = test system: HCT-116
NCI/ADR-RES = test system: NCI/ADR-RES
OVCAR-8 = test system: OVCAR-8
CAKI-1 = test system: CAKI-1

SMILES	GI50 (UACC-62)	GI50 (HCT-15) [µM]	GI50 (A549)	GI50 (HOP-92)	GI50 (Hs-578T)	GI50 (MDA-N)	GI50 (NCI-H23)	GI50 (BT-549)	GI50 (LOX IMVI)	GI50 (SK-MEL-28)	GI50 (HOP-62)	GI50 (RXF 393)	GI50 (T47D)	GI50 (SNB-19)	GI50 (U-251)	GI50 (786-0)	GI50 (HCT-116)	GI50 (NCI/ADR-RES)	GI50 (OVCAR-8)	GI50 (CAKI-1)
c1ccc(-c2cnc(-c3ccc(-c4ncc(-c5ccccc5)o4)cc3)o2)cc1	> 100 µM (inactive)	> 100	> 100 µM (inactive)	> 100 µM (inactive)	> 100 µM (inactive)	> 100 µM (inactive)	> 100 µM (inactive)	> 100 µM (inactive)	> 100 µM (inactive)	> 100 µM (inactive)	> 100 µM (inactive)	> 100 µM (inactive)	> 100 µM (inactive)	> 100 µM (inactive)	> 100 µM (inactive)	> 100 µM (inactive)	> 100 µM (inactive)	> 100 µM (inactive)	> 100 µM (inactive)	–
Cc1cc2c(cc1Cl)Sc1nnc(Nc3ccccc3)n1S2(=O)=O	–	5.07	12.1 µM (inactive)	5.57 µM (inactive)	3.15 µM (inactive)	6.05 µM (inactive)	3.59 µM (inactive)	7.78 µM (inactive)	3.85 µM (inactive)	15.8 µM (inactive)	3.64 µM (inactive)	5.26 µM (inactive)	7.78 µM (inactive)	–	3.75 µM (inactive)	4.75 µM (inactive)	9.64 µM (inactive)	6.22 µM (inactive)	5.97 µM (inactive)	11.1 µM (inactive)
Cc1cccc2c1CC(C1OC(=O)c3c(C)cccc31)C2=O (centres undefined)	> 100 µM (inactive)	> 100	> 100 µM (inactive)	> 100 µM (inactive)	> 100 µM (inactive)	> 100 µM (inactive)	> 100 µM (inactive)	> 100 µM (inactive)	70.6 µM (inactive)	> 100 µM (inactive)	> 100 µM (inactive)	> 100 µM (inactive)	> 100 µM (inactive)	> 100 µM (inactive)	> 100 µM (inactive)	> 100 µM (inactive)	> 100 µM (inactive)	> 100 µM (inactive)	> 100 µM (inactive)	> 100 µM (inactive)
CC(=O)Nc1ccc2c(C)c3c(nc2n1)[nH]c1ccccc13	22.6 µM (inactive)	15.5	41.1 µM (inactive)	20.4 µM (inactive)	19.8 µM (inactive)	18.1 µM (inactive)	25.2 µM (inactive)	31.9 µM (inactive)	16.4 µM (inactive)	–	32.2 µM (inactive)	33.6 µM (inactive)	13.3 µM (inactive)	–	32.4 µM (inactive)	35.4 µM (inactive)	21.6 µM (inactive)	22.1 µM (inactive)	24.9 µM (inactive)	24 µM (inactive)
COc1ccc(/C=N/NC(=S)Nc2cc(C)ccc2OC)cc1	36.1 µM (inactive)	10	45.1 µM (inactive)	25.2 µM (inactive)	78.5 µM (inactive)	21.1 µM (inactive)	29.8 µM (inactive)	26.6 µM (inactive)	43.8 µM (inactive)	34.8 µM (inactive)	34.8 µM (inactive)	33.7 µM (inactive)	32.9 µM (inactive)	46.1 µM (inactive)	–	22.7 µM (inactive)	29.2 µM (inactive)	41.9 µM (inactive)	37.6 µM (inactive)	29.7 µM (inactive)
